Measured values from US20230312587A1, “PTERIDINONE COMPOUNDS AND USES THEREOF” (Vertex Pharmaceutical Incorporated, priority 2018, published 2023).

system: β-catenin-TCF-mediated reporter transcription activity in Colo 205 cells; assay: Colo 205 reporter assay (TCF/LEF luciferase); format: cell-based; settings: Colo 205 TCF/LEF luciferase reporter, five hours after addition of compound; read-out: TCF reporter Colo205 IC50
In short: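 Luciferase signal from a TCF/LEF-driven reporter, stably integrated in Colo 205 colon cancer cells, was measured 5 h after compound addition.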

| IC50 | SMILES |
| --- | --- |
| 300 to 1000 nM | COCC1(C)C(=O)Nc2c(C)nc(NCc3cnn(Cc4cc(C(F)(F)F)nn4C)c3)nc2N1C (stereo not shown) [Compound 709, 7-(methoxymethyl)-4,7,8-trimethyl-2-(((1-((1-methyl-3-(trifluoromethyl)-1H-pyrazol-5-yl)methyl)-1H-pyrazol-4-yl)methyl)amino)-7,8-dihydropteridin-6(5H)-one] |

same assay, conditions: Homo sapiens, COLO 205, 5 h, Colo 205 TCF/LEF luciferase reporter, five hours after addition of compound; read-out: TCF reporter Colo205 IC50

| SMILES | IC50 |
| --- | --- |
| Cc1nc(N[C@H]2CC[C@@H](Oc3cc(F)c(F)c(F)c3)C2)nc2c1NC(=O)[C@H](C)N2C (mixture of isomers) [Compound 259, (7S)-4,7,8-trimethyl-2-((cis-3-(3,4,5-trifluorophenoxy)cyclopentyl)amino)-7,8-dihydropteridin-6(5H)-one] | ≥ 5000 nM |
| Cc1nc(N[C@H]2C[C@H](Nc3ccc(C(F)(F)F)nc3)C2)nc2c1NC(=O)[C@H](C(C)C)N2C [Compound 587, (S)-7-isopropyl-4,8-dimethyl-2-((trans-3-((6-(trifluoromethyl)pyridin-3-yl)amino)cyclobutyl)amino)-7,8-dihydropteridin-6(5H)-one] | 300 to 1000 nM |
| C[C@H]1C(=O)Nc2cnc(NCc3cnn(CCc4ccc(F)c(F)c4)c3)nc2N1C [Compound 111, (7S)-2-(((1-(3,4-difluorophenethyl)-1H-pyrazol-4-yl)methyl)amino)-7,8-dimethyl-7,8-dihydropteridin-6(5H)-one] | 300 to 1000 nM |
| Cc1nc(NCc2cnn(Cc3cc(F)c(F)c(F)c3)c2)nc2c1NC(=O)[C@H](COC(C)(C)C)N2C [Compound 741, (S)-7-(tert-butoxymethyl)-4,8-dimethyl-2-(((1-(3,4,5-trifluorobenzyl)-1H-pyrazol-4-yl)methyl)amino)-7,8-dihydropteridin-6(5H)-one] | 300 to 1000 nM |
| CC[C@H]1C(=O)N(C)c2cnc(NCc3cnn(Cc4cc(F)c(F)c(F)c4)c3)nc2N1CC(F)(F)F [Compound 33, (7S)-7-ethyl-5-methyl-2-(((1-(3,4,5-trifluorobenzyl)-1H-pyrazol-4-yl)methyl)amino)-8-(2,2,2-trifluoroethyl)-7,8-dihydropteridin-6(5H)-one] | 300 to 1000 nM |
| CCn1ccnc1Cn1cc(CNc2nc(C)c3c(n2)N(C)[C@@H](C)C(=O)N3)cn1 [Compound 191, (7S)-2-(((1-((1-ethyl-1H-imidazol-2-yl)methyl)-1H-pyrazol-4-yl)methyl)amino)-4,7,8-trimethyl-7,8-dihydropteridin-6(5H)-one] | 1000 to 5000 nM |
| Cc1nc(NC2COC(Cn3nccc3C(F)(F)F)C2)nc2c1NC(=O)[C@H](C)N2C (stereo partly drawn) [Compound 306, (7S)-4,7,8-trimethyl-2-((cis-5-((5-(trifluoromethyl)-1H-pyrazol-1-yl)methyl)-tetrahydrofuran-3-yl)amino)-7,8-dihydropteridin-6(5H)-one] | 1000 to 5000 nM |
| Cc1nc(N[C@H]2C[C@H](Oc3ccnc(C(F)(F)F)c3)C2)nc2c1N(C)C(=O)[C@H](C)N2C [Compound 337, (7S)-4,5,7,8-tetramethyl-2-((trans-3-((2-(trifluoromethyl)pyridin-4-yl)oxy)cyclobutyl)amino)-7,8-dihydropteridin-6(5H)-one] | 300 to 1000 nM |
| COCC1(C)C(=O)Nc2c(C)nc(NC3CN(C(=O)c4cc(F)c(F)c(F)c4)C3)nc2N1C (stereo not shown) [Compound 721, 7-(methoxymethyl)-4,7,8-trimethyl-2-((1-(3,4,5-trifluorobenzoyl)azetidin-3-yl)amino)-7,8-dihydropteridin-6(5H)-one] | 1000 to 5000 nM |
| Cc1nc(NC2CN(C(=O)Cc3ccc(F)cc3)C2)nc2c1NC(=O)[C@H](C(C)C)N2C [Compound 618, (S)-2-((1-(2-(4-fluorophenyl)acetyl)azetidin-3-yl)amino)-7-isopropyl-4,8-dimethyl-7,8-dihydropteridin-6(5H)-one] | 300 to 1000 nM |
| CC[C@H]1C(=O)Nc2c(C)nc(NC3CN(C(=O)c4cc(F)c(F)c(F)c4)C3)nc2N1C [Compound 739, (S)-7-ethyl-4,8-dimethyl-2-((1-(3,4,5-trifluorobenzoyl)azetidin-3-yl)amino)-7,8-dihydropteridin-6(5H)-one] | 300 to 1000 nM |

Other lines, results leading:

| IC50 | SMILES |
| --- | --- |
| 300 to 1000 nM | COCC1(C)C(=O)Nc2c(C)nc(N[C@H]3C[C@H](Oc4ccc(C(F)(F)F)nc4)C3)nc2N1C (relative stereo) [Compound 724, 7-(methoxymethyl)-4,7,8-trimethyl-2-((trans-3-((6-(trifluoromethyl)pyridin-3-yl)oxy)cyclobutyl)amino)-7,8-dihydropteridin-6(5H)-one] |
| < 300 nM | Cc1nc(NCc2cnn(Cc3cc(F)c(F)c(F)c3)c2)nc2c1NC(=O)[C@H](C1CC1)N2C [Compound 456, (S)-7-cyclopropyl-4,8-dimethyl-2-(((1-(3,4,5-trifluorobenzyl)-1H-pyrazol-4-yl)methyl)amino)-7,8-dihydropteridin-6(5H)-one] |
| < 300 nM | Cc1nc(N[C@H]2C[C@@H](COc3ccc(F)cc3C#N)C2)nc2c1NC(=O)[C@H](C)N2C [Compound 277, 5-fluoro-2-((cis-3-(((7S)-4,7,8-trimethyl-6-oxo-5,6,7,8-tetrahydropteridin-2-yl)amino)cyclobutyl)methoxy)benzonitrile] |
| < 300 nM | CC(C)c1cccc(Cn2cc(CNc3ncc4c(n3)N(C)[C@@H](C)C(=O)N4)cn2)c1 [Compound 81, (7S)-2-(((1-(3-isopropylbenzyl)-1H-pyrazol-4-yl)methyl)amino)-7,8-dimethyl-7,8-dihydropteridin-6(5H)-one] |
| < 300 nM | Cc1nc(NCc2cnn(C3CCC(c4ccc(F)cc4)C3)c2)nc2c1NC(=O)[C@H](C)N2C (stereo partly drawn) [Compound 137, (7S)-2-(((1-(3-(4-fluorophenyl)cyclopentyl)-1H-pyrazol-4-yl)methyl)amino)-4,7,8-trimethyl-7,8-dihydropteridin-6(5H)-one] |
| < 300 nM | Cc1nc(N[C@H]2C[C@@H](COc3ccc(OC(F)(F)F)nc3)C2)nc2c1NC(=O)[C@H](C(C)C)N2C [Compound 598, (S)-7-isopropyl-4,8-dimethyl-2-((cis-3-(((6-(trifluoromethoxy)pyridin-3-yl)oxy)methyl)cyclobutyl)amino)-7,8-dihydropteridin-6(5H)-one] |
| < 300 nM | COc1c(F)cc(Cn2cc(CNc3nc(C)c4c(n3)N(C)[C@@H](C3CC3)C(=O)N4)cn2)cc1F [Compound 457, (S)-7-cyclopropyl-2-(((1-(3,5-difluoro-4-methoxybenzyl)-1H-pyrazol-4-yl)methyl)amino)-4,8-dimethyl-7,8-dihydropteridin-6(5H)-one] |
| < 300 nM | Cc1nc(NCc2cnn(Cc3ccc(Cl)nc3)c2)nc2c1NC(=O)[C@H](C1CCC1)N2C [Compound 566, (7S)-2-(((1-((6-chloropyridin-3-yl)methyl)-1H-pyrazol-4-yl)methyl)amino)-7-cyclobutyl-4,8-dimethyl-7,8-dihydropteridin-6(5H)-one] |
| < 300 nM | Cc1nc(NCc2cnn(Cc3cc(F)c(F)c(F)c3)c2)nc2c1NC(=O)[C@H](C(C)(C)O)N2C [Compound 729, (S)-7-(2-hydroxypropan-2-yl)-4,8-dimethyl-2-(((1-(3,4,5-trifluorobenzyl)-1H-pyrazol-4-yl)methyl)amino)-7,8-dihydropteridin-6(5H)-one] |
| < 300 nM | Cc1nc(N[C@H]2C[C@@H](COc3cncc(Cl)c3)C2)nc2c1NC(=O)[C@H](C)N2C [Compound 366, (7S)-2-((cis-3-(((5-chloropyridin-3-yl)oxy)methyl)cyclobutyl)amino)-4,7,8-trimethyl-7,8-dihydropteridin-6(5H)-one] |
| < 300 nM | Cc1nc(NCc2cnn(Cc3cccc(F)c3)c2)nc2c1NC(=O)[C@H](C)N2C [Compound 69, (7S)-2-(((1-(3-fluorobenzyl)-1H-pyrazol-4-yl)methyl)amino)-4,7,8-trimethyl-7,8-dihydropteridin-6(5H)-one] |
| < 300 nM | Cc1nc(NC2CN(C(=O)Cc3ccc(F)c(F)c3)C2)nc2c1NC(=O)[C@H](C(C)C)N2C [Compound 626, (S)-2-((1-(2-(3,4-difluorophenyl)acetyl)azetidin-3-yl)amino)-7-isopropyl-4,8-dimethyl-7,8-dihydropteridin-6(5H)-one] |
| < 300 nM | Cc1nc(NC2CN(C(=O)COc3ccccc3C(F)(F)F)C2)nc2c1NC(=O)[C@H](C(C)C)N2C [Compound 612, (S)-7-isopropyl-4,8-dimethyl-2-((1-(2-(2-(trifluoromethyl)phenoxy)acetyl)azetidin-3-yl)amino)-7,8-dihydropteridin-6(5H)-one] |
| < 300 nM | Cc1nc(N[C@H]2C[C@H](Oc3ccc(C(F)(F)F)cc3)C2)nc2c1N(C)C(=O)[C@H](C)N2C [Compound 341, (7S)-4,5,7,8-tetramethyl-2-((trans-3-(4-(trifluoromethyl)phenoxy)-cyclobutyl)-amino)-7,8-dihydropteridin-6(5H)-one] |
| < 300 nM | CO[C@H](C)[C@H]1C(=O)Nc2c(C)nc(NCc3cnn(Cc4cc(F)c(F)c(F)c4)c3)nc2N1C [Compound 659, (S)-7-((R)-1-methoxyethyl)-4,8-dimethyl-2-(((1-(3,4,5-trifluorobenzyl)-1H-pyrazol-4-yl)methyl)amino)-7,8-dihydropteridin-6(5H)-one] |

same assay, conditions: Homo sapiens, COLO 205, 5 h, Colo 205 cells with stably transfected TCF/LEF luciferase reporter; five hours after addition of compound; read-out: TCF reporter Colo205

| IC50 | SMILES |
| --- | --- |
| < 300 nM | Cc1nc(N(Cc2cnn(Cc3ccc(C(F)(F)F)nc3)c2)C(=O)OC(C)OC(=O)C(C)C)nc2c1NC(=O)[C@H](C)N2C (stereo partly drawn) [Compound 408, 1-((((1-((6-(trifluoromethyl)pyridin-3-yl)methyl)-1H-pyrazol-4-yl)methyl)((7S)-4,7,8-trimethyl-6-oxo-5,6,7,8-tetrahydropteridin-2-yl)carbamoyl)oxy)ethyl isobutyrate] |

same assay, conditions: Homo sapiens, COLO 205, 5 h, R-isomer at C2 (corresponding to C2 S-isomer); Colo 205 TCF/LEF luciferase reporter, 5 h; read-out: TCF reporter Colo205 IC50

| IC50 | SMILES |
| --- | --- |
| 300 to 1000 nM | Cc1nc(NCc2cnn(Cc3ccc(C(F)(F)F)nc3)c2)nc2c1N(C)C(=O)[C@@H](C)N2C [Compound I-1363] |
| 1000 to 5000 nM | Cc1cc(F)ncc1Cn1cc(CNc2nc(C)c3c(n2)N(C)[C@H](C(C)C)C(=O)N3)cn1 [Compound I-1643] |
| 300 to 1000 nM | CCN1C(=O)[C@@H](C)N(C(C)C)c2nc(NCc3cnn(Cc4ccc(F)cc4)c3)ncc21 [Compound I-1144] |
